Measurements as given in the supplement of paper PMC10307832.

How the values were obtained:
Assay in all cases: relative viability (nuclei count vs DMSO), 5 days (fraction); higher = more cells survive
OSI-027 + Phenformin = compound: COc1cccc2cc(-c3nc([C@H]4CC[C@H](C(=O)O)CC4)n4ncnc(N)c34)[nH]c12 [OSI-027] + N=C(N)NC(=N)NCCc1ccccc1 [Phenformin] (partner 250 µM)
In short: (§1)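 One day after seeding in 1536-well plates, lung cancer cell lines were dosed by pin tool. Dosing was either single-drug or a fixed anchor-drug dose plus five library-drug doses (not always all listed) in √10 steps. After 5 days, nuclei were stained in one fix-and-stain step and counted on 4× images, and relative viability is the nuclei count of treated wells over that of vehicle wells, given as the median of duplicate plates.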

Alpelisib + Luminespib = compound: Cc1nc(NC(=O)N2CCC[C@H]2C(N)=O)sc1-c1ccnc(C(C)(C)C(F)(F)F)c1 [Alpelisib] + CCNC(=O)c1noc(-c2cc(C(C)C)c(O)cc2O)c1-c1ccc(CN2CCOCC2)cc1 [Luminespib] (partner 0.01 µM)
In short: as §1

Vemurafenib + Trametinib = compound: CCCS(=O)(=O)Nc1ccc(F)c(C(=O)c2c[nH]c3ncc(-c4ccc(Cl)cc4)cc23)c1F [Vemurafenib] + CC(=O)Nc1cccc(-n2c(=O)n(C3CC3)c(=O)c3c(Nc4ccc(I)cc4F)n(C)c(=O)c(C)c32)c1 [Trametinib] (partner 0.02 µM)
In short: as §1

Alpelisib + Pemetrexed = compound: Cc1nc(NC(=O)N2CCC[C@H]2C(N)=O)sc1-c1ccnc(C(C)(C)C(F)(F)F)c1 [Alpelisib] + Nc1nc2[nH]cc(CCc3ccc(C(=O)N[C@@H](CCC(=O)O)C(=O)O)cc3)c2c(=O)[nH]1 [Pemetrexed] (partner 0.2 µM)
In short: as §1

| Cell Line | relative viability (OSI-027 + Phenformin; first compound 0.01 µM) | relative viability (OSI-027 + Phenformin; first compound 0.03162 µM) | relative viability (OSI-027 + Phenformin; first compound 0.1 µM) | relative viability (OSI-027 + Phenformin; first compound 0.3162 µM) | relative viability (OSI-027 + Phenformin; first compound 1 µM) | relative viability (Alpelisib + Luminespib; first compound 0.04 µM) | relative viability (Alpelisib + Luminespib; first compound 0.1265 µM) | relative viability (Alpelisib + Luminespib; first compound 0.4 µM) | relative viability (Alpelisib + Luminespib; first compound 1.265 µM) | relative viability (Alpelisib + Luminespib; first compound 4 µM) | relative viability (Vemurafenib + Trametinib; first compound 0.03162 µM) | relative viability (Vemurafenib + Trametinib; first compound 0.1 µM) | relative viability (Vemurafenib + Trametinib; first compound 0.3162 µM) | relative viability (Vemurafenib + Trametinib; first compound 1 µM) | relative viability (Alpelisib + Pemetrexed; first compound 0.04 µM) | relative viability (Alpelisib + Pemetrexed; first compound 0.1265 µM) | relative viability (Alpelisib + Pemetrexed; first compound 0.4 µM) | relative viability (Alpelisib + Pemetrexed; first compound 1.265 µM) | relative viability (Alpelisib + Pemetrexed; first compound 4 µM) |
| --- | --- | --- | --- | --- | --- | --- | --- | --- | --- | --- | --- | --- | --- | --- | --- | --- | --- | --- | --- |
| 201T | 0.477 | 0.45 | 0.445 | 0.407 | 0.371 | 1.08 | 1.02 | 1.02 | 0.961 | 0.956 | 0.702 | 0.681 | 0.752 | 0.779 | 0.328 | 0.325 | 0.361 | 0.305 | 0.269 |
| A549 | 0.176 | 0.154 | 0.122 | 0.171 | 0.0806 |  |  |  |  |  |  |  |  |  |  |  |  |  |  |
| A-427 | 0.296 | 0.332 | 0.289 | 0.269 | 0.297 | 0.909 | 0.881 | 1.09 | 0.83 | 0.92 | 0.711 | 0.702 |  | 0.763 | 0.89 | 0.87 | 0.988 | 0.885 | 0.845 |
| ABC-1 | 0.237 | 0.244 | 0.236 | 0.2 | 0.197 | 0.432 | 0.932 | 0.554 | 0.228 | 0.391 |  |  |  |  |  |  |  |  |  |
| BEN | 0.248 | 0.27 | 0.288 | 0.244 | 0.232 | 0.341 | 0.101 | 0.474 | 0.332 | 0.159 | 0.935 | 1.01 | 0.638 | 0.811 | 0.723 | 0.598 | 0.844 | 0.794 | 0.85 |
